Reference: patent US20230085803A1, “METHOD FOR SEARCHING AND SCREENING FOR TARGET OF ANTI-CANCER AGENT USING NON-HUMAN ANIMAL MODEL HAVING NOG ESTABLISHED CANCER CELL LINE TRANSPLANTED THEREIN” (CHUGAI SEIYAKU KABUSHIKI KAISHA, priority 2009, published 2023)

Assays:
[1] = tested on: Well-differentiated adenocarcinoma (NOG-established colon cancer cell line); experiment: Histopathology of tumor masses after 5-FU administration, well-differentiated adenocarcinoma transplanted into NOG mice; assay type: in vivo, human; settings: NOG mice transplanted with an NOG-established colon cancer cell line, after administration of 5-fluorouracil; legend does not name the line
From the text: (§1) The present inventors used NOG-established cancer cell lines that had been established so as to meet the criterion that human colon cancer, stomach cancer, lung cancer, breast cancer, or pancreatic cancer can be transplanted or passaged over three or more generations in NOG mice (Fujii E. et al., Pathol Int. 2008; 58: 559-567). In this Example, NOG-established cancer cell lines were subcutaneously transplanted into NOG mice. 28 days after transplantation, the mice were dissected, and the implants were excised and fixed with 4% paraformaldehyde at 4° C. for 16 to 24 hours. Then, the fixed samples were embedded and sliced into thin section samples by the AMeX method (Fujii E. et al., Pathol Int. 2008; 58: 559-567). The tissues were stained by HE and immunohistochemistry (IHC). Anti-E-cadherin antibody (DakoCytomation) and anti-fibronectin antibody (DakoCytomation) were used as a primary antibody. The visualization was carried out by LSAB method using DAB (DAB Map kit, Roche Diagnostics).
(§2) Each NOG-established cancer cell line whose tissue morphology was (1) well-differentiated adenocarcinoma, (2) moderately-differentiated adenocarcinoma, or (3) poorly-differentiated adenocarcinoma in the donors' human colon cancer were subcutaneously transplanted into NOG mice. […]

[2] = tested on: moderately-differentiated adenocarcinoma (NOG-established colon cancer cell line); experiment: Histopathology of tumor masses after 5-FU administration, moderately-differentiated adenocarcinoma transplanted into NOG mice; assay type: in vivo, human; settings: NOG mice transplanted with an NOG-established colon cancer cell line, after administration of 5-fluorouracil; legend does not name the line
From the text: as §1, §2

O=c1[nH]cc(F)c(=O)[nH]1 [5-FU, 5-fluorouracil]
poorly-differentiated glandular ducts (histopathology, FIG. 13) [1]: increase | budding structures (histopathology, FIG. 13) [2]: decrease
